Structures can show the parent of a compound that is named as a salt.
What was measured:
δ opioid receptor = target: T1, δ opioid receptor (Mus musculus, UniProt P32300); assay: Mouse vas deferens (MVD): antagonism against the δ agonist DPDPE, pA2 by Schild method; assay type: cell-based
T1 construct: Each of the vas deferens isolated from the mice was hung in a Magnus tube; from tissue; host or cells: vas deferens of male ddy strain mice
Method: Using mouse vas deferens (MVD), the compounds were examined for antagonism against opioid receptor agonists, i.e., morphine (μ), DPDPE (δ), and U50,488H (κ).
Male ddy strain mice were used in this experiment. Each of the vas deferens isolated from the mice was hung in a Magnus tube which was maintained at 37° C., filled with a Krebes-Henseleit solution (NaCl 118 mM; KCl 4.7 mM; CaCl2 2.5 mM; KH2PO4 1.1 mM; NaHCO3 25 mM; glucose 11 mM), and aerated with 5% carbon dioxide and 95% oxygen. Electric stimulation was applied through upper and lower ring-shaped platinum electrodes at 0.1 Hz and 5.0 mS. Tissue contraction was recorded on a polygraph using an Isometric Transducer.
Morphine, DPDPE, and U50,488H were added in a cumulative manner to determine the IC50 values (concentration for 50% inhibition of contraction induced by electric stimulation). Next, 10 nM of a sample compound was added to the system beforehand, and 20 minutes later, morphine, DPDPE, and U50,488H were added in a cumulative manner. According to the above procedure, the ratio of the IC50 values of morphine, DPDPE, and U50,488H in the presence of the sample compound to that in its absence was determined, and the pA2 values were calculated in accordance with the Schild et al.'s method (Schild, H. O., Br. J. Pharamacol. Chemother. 4, 277 (1949)).

T1 sequence (P32300 whole entry): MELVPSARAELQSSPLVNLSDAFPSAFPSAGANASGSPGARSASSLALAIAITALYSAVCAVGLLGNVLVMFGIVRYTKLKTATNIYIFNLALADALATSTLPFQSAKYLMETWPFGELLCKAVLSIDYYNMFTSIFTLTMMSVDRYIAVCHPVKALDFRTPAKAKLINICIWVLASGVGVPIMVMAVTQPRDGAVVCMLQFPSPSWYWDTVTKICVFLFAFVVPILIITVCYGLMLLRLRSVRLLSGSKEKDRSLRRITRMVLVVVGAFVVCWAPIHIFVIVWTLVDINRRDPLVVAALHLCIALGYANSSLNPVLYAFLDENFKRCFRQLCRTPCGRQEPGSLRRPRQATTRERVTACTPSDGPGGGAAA

SMILES | melting point | Kb (δ opioid receptor) [nM]
Oc1ccc2c3c1O[C@H]1c4c(c5c(O)c(F)cc6c5n4CCC6)C[C@@]4(O)[C@@H](C2)N(CC2CC2)CC[C@]314 (as salt: methanesulfonate) | 280 °C (dec.) | 
Oc1ccc2c3c1O[C@H]1c4c(c5cc(F)cc6c5n4CC[C@@H]6O)C[C@@]4(O)[C@@H](C2)N(CC2CC2)CC[C@]314 (as salt: methanesulfonate) [Compound 3, 17-cyclopropylmethyl-6,7-didehydro-4,5α-epoxy-8′-fluoro-5′,6′-dihydro-4′H-pyrrolo[3,2,1-ij]quinolino[2′,1′:6,7]-morphinan-3,6′β,14β-triol] | 240 °C (dec.) | 
Oc1ccc2c3c1O[C@H]1c4c(c5cc(F)cc6c5n4CC[C@@H]6O)C[C@@]4(O)[C@@H](C2)N(CC2CC2)CC[C@]314 [Compound 3, 17-cyclopropylmethyl-6,7-didehydro-4,5α-epoxy-8′-fluoro-5′,6′-dihydro-4′H-pyrrolo[3,2,1-ij]quinolino[2′,1′:6,7]-morphinan-3,6′β,14β-triol] |  | 3.98

Reference: US6770654B2, “Indole derivatives and use thereof in medicines” (Toray Industries, Inc., priority 2000, dated 2004)
